Measurements as given in US8642807B2, “Crystallized diacetylenic indicator compounds and methods of preparing the compounds” (Temptime Corporation, priority 2007, dated 2014).
Values belong to the compound of their own block, whether it stands above or below them.

Key:
[1] = Room temperature solubility of 4DOD in solvent systems, saturated solution dried and weighed (Example 2A); format: physicochemical; details: about 25° C.; for Calculated solubility of 4DOD: stirred 16 hours
Method: To serve as indicator agent, a […] polymerizable diacetylenic monomer, namely 5,7-dodecadiyn-1,12 diol bis(n-octadecyl urethane), “4DOD” hereinafter, is synthesized in sufficient quantity for preparation of a master batch of ink, by the method described in Yee U.S. Pat. No. 4,215,208 at column 17, lines 47-65 and is stored in a freezer. A small quantity of 4DOD is taken from frozen storage and is tested at room temperature for solubility in various solvent systems employing the following procedure.
100 g of deionized water is weighed into a 200 mL glass beaker. 4DOD powder is added to the glass beaker until the solution is saturated allowing excess 4DOD to remain present as undissolved solid. 75 g of deionized water is weighed into another 200 mL glass beaker, and 25 g acetone is added. 4DOD is then added to the water-acetone solvent system in the glass beaker until the solution is saturated and an excess of 4DOD remains as undissolved solid. 75 g of deionized water is weighed into a third 200 mL glass beaker. 25 g ethanol is added to the water and then 4DOD is added to the water-ethanol mixture until the solution is saturated and an excess of 4DOD remains as undissolved solid. Each solution is stirred on a magnetic plate for 16 hours at a controlled room temperature of about 25° C.
After 16 hours of stirring, 7 g of each solution (soluble portion only, avoiding any undissolved solid material) is transferred to a separate aluminum foil pan. The aluminum foil pans are left to stand under a fume hood for 2 hours to allow any volatile solvent to evaporate, and are then dried in a vacuum oven for one 1 hour. Each aluminum foil pan is then weighed and the solubility of the 4DOD in each solvent system is calculated in terms of the percent of solute based on the weight of the solvent system.

[2] = Comparative color-change reactivities of pressed pellets, cyan optical density after ageing at 37, 45 or 70° C. (Example 4); format: physicochemical; details: for activation energy: color-change (solid-state polymerization) reaction of pellets; for color change kinetics / reactivity relative to raw product: 37° C., FIG. 12
Method: Sample pellets are prepared from crystalline diacetylenic monomer powder using an E-Z Press 12-Ton Hydraulic Press and KBr Pellet Kit with 13 mm die set, as supplied by International Crystal Laboratories (Garfield, N.J.). Using about 300 mg powder, a pressure of 5 to 8 tons is applied for 2-3 minutes. Samples of 2,4-hexadiyn-1,6-bis(ethylurea) precipitated from dimethyl sulfoxide, methanol and a 4:1 by weight ethanol/water mixture are prepared. Pellets of raw 2,4-hexadiyn-1,6-bis(ethylurea) crystals (“KE raw”), precipitated from a solution in hot glacial acetic acid, using methanol as a precipitant, shortly after the 2,4-hexadiyn-1,6-bis(ethylurea) was synthesized, are included as controls.
While being handled by the edges, an individual pellet is placed in a transparent heat-seal bag, about 50 mm by 115 mm, vacuum sealed and placed into a heat-sealable foil pouch. The foil pouch is vacuum-sealed using a Fuji Impulse tabletop vacuum heat sealer. The sealed foil pouch containing the pellets is stored in a freezer at −30° C., or other suitable temperature, until ready for testing.
The heat-sealed foil pouch samples containing the pellets are placed in a water bath, for example a Huber circulating water bath, set to appropriate temperatures for example 37° C., 45° C. or 70° C., and aged for suitable measured time periods such as a few days at 37° C. or a few hours at 70° C. where the reaction proceeds more rapidly. The samples are weighted to keep them immersed in the water during the test. Timing is started immediately after each pouch is placed into the water bath. The pouch is removed at the end of the designated test period and its optical density is measured.
To measure optical density the pouch is briefly immersed in a second water bath set at 20° C. to quench the sample and prevent further color change during measurement. The foil pouch is cut open leaving the pellet inside the transparent heat-sealed bag. The reaction kinetics of the diacetylenic monomer are determined by measuring the cyan optical density (O.D.) of the aged pellets using an X-Rite 404 color reflection densitometer. The optical density can be measured on an arbitrary scale and used for comparative indications of color change reactivity.
In order to compensate for the thickness of the pellets, which are about 2 mm thick, when using the densitometer, the densitometer can be raised on to an elevated platform of corresponding height.

Calculated solubility of 4DOD ([1]; 75% Water 25% Acetone): 10% wt %
Calculated solubility of 4DOD ([1]; 100% Acetone): 32% wt %
Calculated solubility of 4DOD ([1]; 100% Ethanol): 37% wt %
Calculated solubility of 4DOD ([1]; Water): 0.03% wt %
solubility in the individual organic solvent alone, in words ([1]; ethanol or acetone alone): remarkably high solubility
solubility in water, in words ([1]; water): minimal solubility
Compound: 5,7-dodecadiyn-1,12-bis-n-octadecyl urethane [4DOD]

Compound: CCNC(=O)NCC#CC#CCNC(=O)NCC [raw product, 2,4-hexadiyn-1,6-bis(ethylurea), reference compound]
activation energy [2]: 23 kcal/mol

Compound: CCNC(=O)NCC#CC#CCNC(=O)NCC [2,4-hexadiyn-1,6-bis(ethylurea) crystallized from pyridine]
color change kinetics / reactivity relative to raw product [2]: faster color change kinetics than does the raw product
activation energy [2]: about 19 kcal/mol

Compound: CCNC(=O)NCC#CC#CCNC(=O)NCC [2,4-hexadiyn-1,6-bis(ethylurea)]
color change kinetics / reactivity relative to raw product [2]: modestly faster reactivity than raw 2,4-hexadiyn-1,6-bis(ethylurea)
reactivity profile ([2]; 45° C., FIG. 13): close to that of the pyridine product
